In patent publication US11185523B2, “Use of bipolar trans carotenoids with chemotherapy and radiotherapy for treatment of cancer” (DIFFUSION PHARMACEUTICALS LLC, priority 2016, dated 2021):
“Also recorded” adds a separate entry of the source.

Key:
[1] = Absorption into blood stream after intramuscular injection with gamma cyclodextrin; type: in vivo, rat; settings: injected intramuscularly, rats
Source text: The use of gamma-cyclodextrin with TSC increases the solubility of TSC in water by 3-7 times. […] The incorporation of the gamma cyclodextrin also allows for TSC to be absorbed into the blood stream when injected intramuscularly. Absorption is quick, and efficacious blood levels of TSC are reached quickly (as shown in rats).

Hemorrhagic Stroke = assay: Pre-clinical efficacy study: Hemorrhagic Stroke; type: in vivo; settings: Rat
Source text: It has also been determined that several non-cancer disorders are beneficially treated utilizing an administration regimen of a bipolar trans carotenoid such as TSC, as described below.

DMBA breast tumors = assay: DMBA breast tumor model, TSC before chemotherapy; type: in vivo; settings: for tumor growth, timing of TSC injection: Day 2, FIG. 5
Procedure: Breast tumors were induced through injection of DMBA (dimethylbenzantracene) under the mammary tissue of female rats. The tumors usually grow in most rats and reach measurable conditions after 10 days.
The following studies used a method in which a 3-mL syringe is filled first with 1 ml of DMBA dissolved in sunflower seed oil (20 mg DMBA per mL of solution). Following that, 2 mL's of air are pulled into the syringe. The needle of the syringe is then inserted under the mammary tissue near a hind leg and the air in the syringe is carefully injected. The injection of the air forms a “pocket”, and then the 1 mL of DMBA solution is injected into that pocket.
After the tumors have grown up (about 10 days), their volumes are estimated by measuring the diameter (d) and the length (L) of the football-shaped tumors formed. This is done using calipers after feeling the tumor with one's fingers. To estimate the volume of the tumor, you multiply the diameter squared times the length and divide by 2: Tumor volume (in mm3)={(d in mm)^22}×(L in mm)
TSC or saline (controls) was injected in the tail vein of the rats at a volume of 0.1 mL and a dose of 0.25 mg/kg TSC about 1-2 hours before the chemotherapeutic agent was injected intraperitoneally (IP) in the rats.
In order to understand which dosages are efficacious when used with chemotherapy, a rat model of breast tumors was used. The model involves injecting the chemical dimethylbenzanthracene (DMBA) under the mammary gland of a female Sprague-Dawley rat. After a few days, tumors begin to grow and can be measured by feeling the football-shaped tumor under the skin and measured using calipers.

With `CC(/C=C/C=C(\C)C(=O)[O-])=C\C=C\C=C(C)\C=C\C=C(/C)C(=O)[O-].[Na+].[Na+]` [TSC, trans sodium crocetinate] the “absorption into the blood stream” value [1] was “quick”, the “Best Dosage” value (Hemorrhagic Stroke) was “Low” and the “effect on tumor volume with cisplatin” value (DMBA breast tumors; high dose (for rats) 0.25 mg/kg TSC 2 hours before 1 mg/kg cisplatin IP on days 0, 4, 11, 18, FIG. 2) was “efficacious; also recorded: significant improvement in tumor volume over the control”. The “tumor growth, timing of TSC injection” value (DMBA breast tumors; high dose TSC 2 hours before gemcitabine 7.5 mg/kg) was “best and best results”, the “pseudoprogression (increase in tumor volume on day 7)” value (DMBA breast tumors; high dose TSC 2 hours prior to doxorubicin) was “Pseudoprogression was also seen” and the “tumor growth with doxorubicin” value (DMBA breast tumors; high dose TSC 2 hours prior to doxorubicin, FIG. 7) was “marked reduction in tumor growth in comparison with the control group”. The “pseudoprogression (increase in tumor volume on day 7)” value (DMBA breast tumors; high dose TSC 2 hours prior to temozolomide, FIG. 6) was “pseudoprogression was seen”, the pseudoprogression (DMBA breast tumors; high dose TSC 2 hrs. prior to paclitaxel) was “Pseudoprogression was also seen” and the “tumor growth with paclitaxel” value (DMBA breast tumors; high dose TSC 2 hrs. prior to paclitaxel, Days 0, 4, 8, 14, FIG. 8) was “marked reduction in tumor growth in comparison with the control group”. For the same compound, the “tumor growth, timing of TSC injection” value (DMBA breast tumors; high dose TSC concurrently, 1 hour before or 2 hours before gemcitabine 7.5 mg/kg) was “reduced tumor growth relative to control”, the “tumor growth with gemcitabine” value (DMBA breast tumors; high dose of TSC 2 hours before 5 mg/kg gemcitabine IP on days 0, 3, FIG. 4) was “substantially less tumor growth than those in the control group” and the “effect on tumor volume with gemcitabine” value (DMBA breast tumors; high dose of TSC 2 hours before 10 mg/kg gemcitabine IP on days 0, 3, day 3, FIG. 3) was “efficacious; also recorded: significant decrease in tumor volume”.
